# Experimental data taken from patent US6274715A, “Tricyclic erythromycin derivatives” (priority 1997, dated 2001).
# How the values were obtained:
# Format in all cases: cell-based
# [1] = system: STAPHYLOCOCCUS AUREUS ATCC 6538P; test: In vitro antibacterial activity, MIC, BHI agar dilution; details: S. aureus ATCC 6538P, 35-37° C., 20 to 24 hours, unit assumed
# [2] = system: STAPHYLOCOCCUS AUREUS A-5278; test: as above; details: S. aureus A-5278, unit assumed
# [3] = system: STAPHYLOCOCCUS AUREUS CMX 642A; test: as above; details: S. aureus CMX 642A, unit assumed
# [4] = system: STAPHYLOCOCCUS AUREUS NCTC10649M; test: as above; details: S. aureus NCTC10649M, unit assumed
# [5] = system: STAPHYLOCOCCUS AUREUS CMX 553; test: as above; details: S. aureus CMX 553, unit assumed
# [6] = system: STAPHYLOCOCCUS AUREUS 1775; test: as above; details: S. aureus 1775, unit assumed
# [7] = system: STAPHYLOCOCCUS EPIDERMIDIS 3519; details: S. epidermidis 3519; BHI agar; unit assumed
# [8] = system: EN[…] ATCC 8043; test: In vitro antibacterial activity, MIC, BHI agar dilution; details: E. faecium ATCC 8043, unit assumed
# In short: (§1)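 BHI agar dilution: twelve plates with successive compound dilutions, inoculated by replicator with 1:100 culture dilutions (1:10 for slow growers such as Micrococcus and Streptococcus), 20 to 24 hours at 35-37° C. MIC was the lowest concentration giving no growth, slight haze or sparse isolated colonies versus drug-free control; erythromycin A as class reference.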
# [9] = system: M[…] ATCC 4698; test: as above; details: M. luteus ATCC 4698, unit assumed
# In short: as §1
# [10] = system: M[…] ATCC 9341; test: as above; details: M. luteus ATCC 9341, unit assumed
# In short: as §1
# [11] = system: STR[…] 508; test: as above; details: S. agalactiae CMX 508, unit assumed
# In short: as §1
# [12] = system: STREPTOCOCCUS BOVIS A-5169; test: as above; details: S. bovis A-5169, unit assumed
# [13] = system: STREPTOCOCCUS PYOGENES EES61; test: as above; details: S. pyogenes EES61, unit assumed
# [14] = system: STREPTOCOCCUS PYOGENES 930; test: as above; details: S. pyogenes 930, unit assumed
# [15] = system: STREPTOCOCCUS PYOGENES PIU 2548; test: as above; details: S. pyogenes PIU 2548, unit assumed
# [16] = system: ESCHERICHIA COLI JUHL; details: E. coli JUHL; BHI agar; unit assumed
# [17] = system: ESCHERICHIA COLI SS; test: In vitro antibacterial activity, MIC, BHI agar dilution; details: E. coli SS, unit assumed
# [18] = system: ESCHERICHIA COLI H560; test: as above; details: E. coli H560, unit assumed
# [19] = system: ESCHERICHIA COLI KNK 437; details: E. coli KNK 437; BHI agar; unit assumed
# [20] = system: ENTEROBACTER AEROGENES ATCC 13048; test: In vitro antibacterial activity, MIC, BHI agar dilution; details: E. aerogenes ATCC 13048, unit assumed
# [21] = system: PROVIDENCIA STUARTII CMX 640; details: P. stuartii CMX 640; BHI agar; unit assumed
# [22] = system: PSEUDOMONAS AERUGINOSA BMH10; test: In vitro antibacterial activity, MIC, BHI agar dilution; details: P. aeruginosa BMH10, unit assumed
# [23] = system: PSEUDOMONAS AERUGINOSA 5007; test: as above; details: P. aeruginosa 5007, unit assumed
# [24] = system: PSEUDOMONAS AERUGINOSA K799/WT; test: as above; details: P. aeruginosa K799/WT, unit assumed
# [25] = system: PSEUDOMONAS AERUGINOSA K799/61; test: as above; details: P. aeruginosa K799/61, unit assumed
# [26] = system: PSEUDOMONAS CEPACIA 296I; test: as above; details: P. cepacia 296I, unit assumed
# [27] = system: ACINETOBACTER CALCOACETICUS CMX 669; test: as above; details: A. calcoaceticus CMX 669, unit assumed
# [28] = system: PSEUDOMONAS AERUGINOSA DPHD-5263; test: as above; details: P. aeruginosa DPHD-5263, unit assumed
# [29] = system: PSEUDOMONAS AERUGINOSA DPHD-2862; test: as above; details: P. aeruginosa DPHD-2862, unit assumed
# [30] = system: CANDIDA ALBICANS CCH 442; test: as above; details: C. albicans CCH 442, unit assumed
# [31] = system: MYCOBACTERIUM SMEGMATIS ATCC 114; test: as above; details: M. smegmatis ATCC 114, unit assumed
# [32] = system: ESCHERICHIA COLI DC-2; test: as above; details: E. coli DC-2, unit assumed
# [33] = system: STAPHYLOCOCCUS AUREUS A5177; test: as above; details: S. aureus A5177, unit assumed
# [34] = system: KLEBSIELLA PNEUMONIAE ATCC 8045; test: as above; details: K. pneumoniae ATCC 8045, unit assumed
Compound,MIC [1] [µg/mL],MIC [2] [µg/mL],MIC [3] [µg/mL],MIC [4] [µg/mL],MIC [5] [µg/mL],MIC [6] [µg/mL],MIC [7] [µg/mL],MIC [9] [µg/mL],MIC [10] [µg/mL],MIC [12] [µg/mL],MIC [14] [µg/mL],MIC [15] [µg/mL],MIC [16] [µg/mL],MIC [17] [µg/mL],MIC [18] [µg/mL],MIC [20] [µg/mL],MIC [21] [µg/mL],MIC [22] [µg/mL],MIC [23] [µg/mL],MIC [26] [µg/mL],other results
CC[C@H]1OC(=O)[C@H](C)C(=O)[C@H](C)[C@@H](O[C@@H]2O[C@H](C)C[C@H](N(C)C)[C@H]2O)[C@](C)(OC)C[C@@H](C)C2=NC[C@H](Cc3ccccc3)N3C(=O)O[C@@]1(C)[C@H]3[C@H]2C [Example 5],0.2,> 100,0.2,0.2,0.2,> 100,0.2,0.2,0.05,0.01,> 100,0.39,12.5,0.39,3.1,50,> 100,50,> 100,25,MIC [8]: 0.05 µg/mL; MIC [11]: 0.02 µg/mL; MIC [13]: 0.02 µg/mL; MIC [19]: 6.2 µg/mL; MIC [24]: 50 µg/mL; MIC [25]: 0.78 µg/mL; MIC [27]: 12.5 µg/mL; MIC [28]: > 100 µg/mL; MIC [29]: > 100 µg/mL; MIC [30]: > 100 µg/mL; MIC [31]: 0.2 µg/mL
CC[C@H]1OC(=O)[C@H](C)C(=O)[C@H](C)[C@@H](O[C@@H]2O[C@H](C)C[C@H](N(C)C)[C@H]2O)[C@](C)(OC)C[C@@H](C)C2=N[C@H](C)[C@H](C)N3C(=O)O[C@@]1(C)[C@H]3[C@H]2C [Example 10],0.39,> 100,0.39,0.39,0.39,> 100,0.39,0.2,0.1,0.05,> 100,0.39,25,0.2,25,50,> 100,> 100,> 100,100,MIC [32]: 25 µg/mL; MIC [27]: 25 µg/mL; MIC [28]: > 100 µg/mL; MIC [29]: > 100 µg/mL; MIC [30]: > 100 µg/mL; MIC [31]: 6.2 µg/mL
CC[C@H]1OC(=O)[C@H](C)C(=O)[C@H](C)[C@@H](O[C@@H]2O[C@H](C)C[C@H](N(C)C)[C@H]2O)[C@](C)(OC)C[C@@H](C)C2=NCC(COC(=O)c3ccc(Cl)cc3)N3C(=O)O[C@@]1(C)[C@H]3[C@H]2C (stereo partly drawn) [Example 141],0.1,50,0.1,0.1,0.1,50,0.1,0.1,0.01,≤ 0.005,50,0.2,50,0.78,12.5,> 100,> 100,100,> 100,25,MIC [33]: 0.1 µg/mL; MIC [8]: 0.02 µg/mL; MIC [11]: 0.02 µg/mL; MIC [13]: ≤ 0.005 µg/mL; MIC [32]: 50 µg/mL; MIC [19]: 50 µg/mL; MIC [34]: 100 µg/mL; MIC [24]: > 100 µg/mL; MIC [25]: 1.56 µg/mL; MIC [28]: > 100 µg/mL; MIC [29]: > 100 µg/mL; MIC [30]: > 100 µg/mL; MIC [31]: 0.2 µg/mL
